Reference: patent US20150105252A1, “SUBSTITUTED PYRAZOLES AS HERBICIDES” (E I DU PONT DE NEMOURS AND COMPANY, priority 2013, published 2015)

Tests used:
Italian ryegrass = test: Test F preemergence; format: in vivo, Lolium multiflorum
From the text: Seeds of plant species selected from corn (Zea mays), soybean (Glycine max), velvetleaf (Abutilon theophrasti), lambsquarters (Chenopodium album), wild poinsettia (Euphorbia heterophylla), pigweed, palmer (palmer pigweed, Amaranthus palmeri), common waterhemp (Amaranthus rudis), surinam grass (Brachiaria decumbens), large crabgrass (Digitaria sanguinalis), crabgrass, Brazil (Brazilian crabgrass, Digitaria horizontalis), fall panicum (Panicum dichotomiflorum), giant foxtail (Setaria faberii), green foxtail (Setaria viridis), goosegrass (Eleusine indica), johnsongrass (Sorghum halepense), common ragweed (Ambrosia elation), barnyardgrass (Echinochloa crus-galli), southern sandbur (Cenchrus echinatus), arrowleaf sida (Sida rhombifolia), Italian ryegrass (Lolium multiflorum), dayflower, VA (Virginia (VA) dayflower, Commelina virginica), field bindweed (Convolvulus arvensis), cocklebur (common cocklebur, Xanthium strumarium), morningglory (Ipomoea coccinea), nightshade (eastern black nightshade, Solanum ptycanthum), kochia (Kochia scoparia), yellow nutsedge (Cyperus esculentus), and hairy beggarticks (Bidens pilosa), were planted into a silt loam soil and treated preemergence with test chemicals formulated in a non-phytotoxic solvent mixture which included a surfactant.
At the same time, plants from these crop and weed species and also horseweed (Canada horseweed, Conyza canadensis), smartweed (ladysthumb smartweed, Polygonum persicaria), waterhemp_RES1, (ALS & Triazine resistant common waterhemp, Amaranthus rudis), and waterhemp_RES2, (ALS & HPPD resistant common waterhemp, Amaranthus rudis) were treated with postemergence applications of test chemicals formulated in the same manner. Plants ranged in height from 2 to 18 cm for postemergence treatments (1- to 4-leaf stage). Treated plants and controls were maintained in a greenhouse for 14 to 21 days, after which time all species were compared to controls and visually evaluated. Plant response ratings, summarized in Table F, are based on a scale of 0 to 100 where 0 is no effect and 100 is complete control. A dash (-) response means no test result.

Surinam grass [1] = test: Test C postemergence; format: in vivo, Brachiaria decumbens; settings: for Surinam Grass plant response rating: 62 g ai/ha, scale 0 to 100
From the text: (§1) Seeds of plant species selected from blackgrass (Alopecurus myosuroides), ryegrass, Italian (Italian ryegrass, Lolium multiflorum), wheat (winter wheat, Triticum aestivum), galium (catchweed bedstraw, Galium aparine), corn (Zea mays), crabgrass, large (large crabgrass, Digitaria sanguinalis), foxtail, giant (giant foxtail, Setaria faberii), johnsongrass (Sorghum halepense), lambsquarters (Chenopodium album), morningglory (Ipomoea coccinea), nutsedge, yellow (yellow nutsedge, Cyperus esculentus), pigweed (redroot pigweed, Amaranthus retroflexus), ragweed (common ragweed, Ambrosia elation), soybean (Glycine max), barnyardgrass (Echinochloa crus-galli), oilseed rape (Brassica napus), waterhemp (common waterhemp, Amaranthus rudis), oat, wild (wild oat, Avena fatua), kochia (Kochia scoparia), Surinam grass (Brachiaria decumbens), foxtail, green (green foxtail, Setaria viridis), goosegrass (Eleusine indica), bromegrass, downy (downy bromegrass, Bromus tectorum), nightshade (eastern black nightshade, Solanum ptycanthum), cocklebur (common cocklebur, Xanthium strumarium), cupgrass, woolly (woolly cupgrass, Eriochloa villosa), bermudagrass (Cynodon dactylon), sunflower, (common oilseed sunflower, Helianthus annuus), Russian thistle (Salsola kali), and velvetleaf (Abutilon theophrasti) were planted into a blend of loam soil and sand and treated preemergence with test chemicals formulated in a non-phytotoxic solvent mixture which included a surfactant.
(§2) At the same time, plants selected from these crop and weed species and also chickweed (common chickweed, Stellaria media), canarygrass (littleseed canarygrass, Phalaris minor), and deadnettle (henbit deadnettle, Lamium amplexicaule), were planted in pots containing Redi-Earth® planting medium (Scotts Company, 14111 Scottslawn Road, Marysville, Ohio 43041) comprising spaghnum peat moss, vermiculite, wetting agent and starter nutrients and treated with postemergence applications of test chemicals formulated in the same manner. Plants ranged in height from 2 to 18 cm (1- to 4-leaf stage) for postemergence treatments. Treated plants and controls were maintained in a greenhouse for 13 to 15 days, after which time all species were compared to controls and visually evaluated. Plant response ratings, summarized in Table C, are based on a scale of 0 to 100 where 0 is no effect and 100 is complete control. A dash (-) response means no test result.

goosegrass = test: Test C postemergence; format: in vivo, Eleusine indica; settings: for Goosegrass plant response rating: scale 0 to 100
From the text: as §1, §2

barley = test: Test C postemergence; format: in vivo, Hordeum vulgare; settings: scale 0 to 100
windgrass [2] = test: Test C postemergence; format: in vivo, Apera spica-venti; settings: 250 g ai/ha, scale 0 to 100 (0 no effect, 100 complete control)
windgrass [3] = test: Test C postemergence; format: in vivo, Apera spica-venti; settings: 125 g ai/ha, scale 0 to 100, 0 no effect, 100 complete control
Surinam grass [4] = test: Test C preemergence; format: in vivo, Brachiaria decumbens; settings: for Plant response rating (scale of 0 to 100), Surinam Grass: Preemergence, 250 g ai/ha; for Surinam Grass plant response rating / Plant response rating, Surinam Grass: preemergence; for Plant response rating, Surinam Grass: 62 g ai/ha, scale 0 to 100, 0 = no effect, 100 = complete control
From the text: as §1, §2

cocklebur = test: Test C preemergence; format: in vivo, Xanthium strumarium; settings: for Plant response rating (scale of 0 to 100), Cocklebur: Preemergence, 250 g ai/ha; for Cocklebur plant response rating / Plant response rating, Cocklebur: preemergence; for Plant response rating, Cocklebur: 62 g ai/ha, scale 0 to 100, 0 = no effect, 100 = complete control
From the text: as §1, §2

sunflower = test: Test C preemergence; format: in vivo, Helianthus annuus; settings: for Plant response rating (scale of 0 to 100), Sunflower: Preemergence, 250 g ai/ha; for Sunflower plant response rating / Plant response rating, Sunflower: preemergence; for Plant response rating, Sunflower: 62 g ai/ha, scale 0 to 100, 0 = no effect, 100 = complete control
From the text: as §1, §2

common ragweed = test: Test A preemergence; format: in vivo, Ambrosia elation
Procedure, shortened: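 Both timings tested concurrently in loam/sand soil: preemergence by directed soil spray, postemergence on plants of 2–10 cm at the one- to two-leaf stage. Greenhouse holding period was approximately 10 days before visual injury assessment (0–100, 0 = no effect).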

[5] = 125 g ai/ha, scale 0 to 100, 0 no effect, 100 complete control
[6] = 250 g ai/ha, scale 0 to 100 (0 no effect, 100 complete control)
[7] = postemergence, 250 g ai/ha, scale 0 to 100 (0 no effect, 100 complete control)
[8] = postemergence, 62 g ai/ha, scale 0 to 100, 0 no effect, 100 complete control
[9] = postemergence, 125 g ai/ha, scale 0 to 100, 0 no effect, 100 complete control
[10] = 31 g ai/ha, scale 0 to 100 (0 no effect, 100 complete control), 13 to 15 days
[11] = 125 g ai/ha, scale 0 to 100, 0 is no effect, 100 is complete control

SMILES	Surinam Grass plant response rating (Surinam grass [1])	Plant response rating, Surinam Grass (Surinam grass [1]; [5])	Plant response rating, Surinam Grass (Surinam grass [1]; [6])	Goosegrass plant response rating (goosegrass; Postemergence, 31 g ai/ha)	Plant response rating, Goosegrass (goosegrass; [7])	Plant response rating, Goosegrass (goosegrass; [8])	Plant response rating, Goosegrass (goosegrass; [9])	Barley plant response rating (barley; Postemergence, 31 g ai/ha)	Plant response rating, Windgrass (windgrass [2])	Plant response rating, Windgrass (windgrass [3])	Plant response rating (scale of 0 to 100), Surinam Grass (Surinam grass [4])	Surinam Grass plant response rating (Surinam grass [4]; [10])	Plant response rating, Surinam Grass (Surinam grass [4]; 13 to 15 days)	Surinam Grass plant response rating (Surinam grass [4]; [11])	Plant response rating (scale of 0 to 100), Cocklebur (cocklebur)	Cocklebur plant response rating (cocklebur; [10])	Plant response rating, Cocklebur (cocklebur; 13 to 15 days)	Cocklebur plant response rating (cocklebur; [11])	Plant response rating (scale of 0 to 100), Sunflower (sunflower)	Sunflower plant response rating (sunflower; [10])	also measured
CCCc1cc(C(=O)NC(C)C)nn1Cc1cc(C(F)(F)F)nn1C [Compound 201]	–	–	–	–	–	–	–	–	–	–	–	–	–	–	–	–	–	–	–	–	Plant response rating, Italian Ryegrass (Italian ryegrass; Preemergence, 62 g ai/ha, scale 0 to 100): 30; Plant response rating, Italian Ryegrass (Italian ryegrass; Preemergence, 125 g ai/ha, scale 0 to 100): 75; Plant response rating, Italian Ryegrass (Italian ryegrass; Preemergence, 250 g ai/ha, scale 0 to 100): 75; Plant response rating, Italian Ryegrass (Italian ryegrass; preemergence, 16 g ai/ha, scale 0 to 100, 100 is complete control): 0
CCc1cc(C(=O)NCC(F)(F)F)nn1Cc1cccc(OC(F)(F)F)c1 [Compound 20]	5	10	10	0	15	5	5	15	45	40	–	–	–	–	–	–	–	–	–	–	–
CCc1cc(C(=O)NOC(C)C)nn1Cc1cccc(OC(F)(F)F)c1 [Compound 70]	10	20	30	5	15	5	10	0	50	50	85	5	25	65	100	0	0	45	5	0	Plant response rating, Sunflower (sunflower; 13 to 15 days): 0; Sunflower plant response rating (sunflower; [11]): 5
CCCNC(=O)c1cc(CC)n(Cc2cccc(OC(F)(F)F)c2)n1 [Compound 27]	5	10	10	0	10	0	0	10	45	40	–	–	–	–	–	–	–	–	–	–	–
CCCNC(=O)c1cc(OCC)n(Cc2ccnc(OC(F)F)c2)n1 [Compound 136]	–	–	–	–	–	–	–	–	–	–	–	–	–	–	–	–	–	–	–	–	Common Ragweed plant response rating (common ragweed; 125 g ai/ha, visual injury, 0 to 100 scale, approx. 10 days): 70; Common Ragweed plant response rating (common ragweed; 500 g ai/ha, visual injury after approx. 10 days, 0 to 100 scale (0 no effect, 100 complete control)): 80
CCONC(=O)c1cc(CC)n(Cc2cccc(OC(F)(F)F)c2)n1 [Compound 72]	10	10	15	0	5	–	0	0	30	25	75	10	15	65	100	0	0	10	20	0	Plant response rating, Sunflower (sunflower; 13 to 15 days): 0; Sunflower plant response rating (sunflower; [11]): 5; Goosegrass plant response rating (goosegrass; postemergence, 62 g ai/ha): 0; Barley plant response rating (barley; postemergence, 62 g ai/ha): 5
Cc1cc(C(=O)NCC(F)(F)F)nn1Cc1ccnc(C(F)(F)F)c1 [Compound 74]	10	15	25	5	10	–	5	0	5	0	100	15	50	85	100	100	100	100	95	10	Plant response rating, Sunflower (sunflower; 13 to 15 days): 40; Sunflower plant response rating (sunflower; [11]): 75; Goosegrass plant response rating (goosegrass; postemergence, 62 g ai/ha): 5; Barley plant response rating (barley; postemergence, 62 g ai/ha): 0
